The values that follow are results of earlier work, collected in patent publication US20110301131A1, “Drug Delivery Implants and Processes for Their Preparation” (priority 2008, published 2011).

The conditions of the series: bupivacaine used in regional anaesthesia.

As to `CCCCN1CCCCC1C(=O)Nc1c(C)cccc1C` (stereo not shown) [bupivacaine], the Half-life result was “about 3 hours”.
